PubChem BioAssay AID540261 (Sanford-Burnham Center for Chemical Genomics, 2011)
The source made the active and inactive calls.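 Rule for the calls: active = compounds whose average half-maximal inhibitory concentration on the enzyme falls below 100 micromolar; inactive = the rest.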

target: Alkaline phosphatase, tissue-nonspecific isozyme (Homo sapiens) (UniProt P05186); assay: human TNAP enzyme inhibitors, SAR follow-up, selectivity assay for human IAP inhibitor project, biochemical, set 2, CDP-Star luminescence (AID 540261); conditions: purified human TNAP, 30 min
Sequence (P05186 whole entry, looked up): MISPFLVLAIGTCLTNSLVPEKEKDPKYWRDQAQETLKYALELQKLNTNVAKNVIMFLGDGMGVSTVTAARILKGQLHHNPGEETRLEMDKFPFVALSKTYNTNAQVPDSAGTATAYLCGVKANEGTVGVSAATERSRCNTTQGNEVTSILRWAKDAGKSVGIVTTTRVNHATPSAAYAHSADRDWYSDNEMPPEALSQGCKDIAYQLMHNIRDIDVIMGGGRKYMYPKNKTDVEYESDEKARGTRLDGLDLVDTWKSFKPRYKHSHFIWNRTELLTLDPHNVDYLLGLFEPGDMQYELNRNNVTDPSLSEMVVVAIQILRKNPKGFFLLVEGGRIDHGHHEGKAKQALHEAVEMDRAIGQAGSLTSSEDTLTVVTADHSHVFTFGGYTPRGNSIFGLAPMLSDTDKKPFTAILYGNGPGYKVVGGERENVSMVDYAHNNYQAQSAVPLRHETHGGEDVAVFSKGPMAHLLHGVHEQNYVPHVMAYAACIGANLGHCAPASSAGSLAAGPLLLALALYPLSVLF

| Structure (SMILES) | IC50 |
| --- | --- |
| O=C(CNS(=O)(=O)c1ccc2[nH]c(=O)oc2c1)NCc1ccc2c(c1)OCO2 | > 100 µM (inactive) |
| O=C(CNS(=O)(=O)c1ccc2[nH]c(=O)oc2c1)Nc1ccc2c(c1)OCO2 | > 100 µM (inactive) |

Now from value to compound:

| IC50 | Structure (SMILES) |
| --- | --- |
| > 100 µM (inactive) | N#Cc1ccc(CNC(=O)CCNS(=O)(=O)c2ccc3[nH]c(=O)oc3c2)cc1 |
| > 100 µM (inactive) | Cc1ccc(C)c(NC(=O)CCNS(=O)(=O)c2ccc3[nH]c(=O)oc3c2)c1 |
| > 100 µM (inactive) | COc1ccc(NC(=O)CNS(=O)(=O)c2ccc3[nH]c(=O)oc3c2)cc1OC |
